Results taken from patent publication US20190008864A1, “PHARMACEUTICAL COMPOSITION CONTAINING GPR119 LIGAND AS EFFECTIVE INGREDIENT FOR PREVENTING OR TREATING NON-ALCOHOLIC STEATOHEPATITIS” (PHARMEDIX.CO., LTD., priority 2014, published 2019).

Tests used:
TNF-alpha mRNA = TNF-alpha mRNA after LPS stimulation in RAW264.7 cells (real time PCR); assay type: cell-based, mouse; settings: RAW264.7, 3 μM, 10 ng/ml LPS, 6 hours
Protocol: RAW264.7 cells cultured in 6-well plates were stabilized for 12 hours in a serum-free medium, and then exposed to 3 μM of MBX-2982 and 10 ng/ml of LPS. After 6 hours, RNA samples extracted with TRIZOL were reversely transcribed using a cDNA synthesis PCR kit to synthesize cDNAs. The cDNAs obtained through reverse transcription were used as a template, and primers for 5′ and 3′ flanking sequences of cDNAs to be amplified were as follows. Real time PCR (Mini-Opticon, Bio-Rad, US) was carried out and the expression levels of mRNA were investigated.
Inflammatory marker change results evaluated after LPS stimulation for RAW264.7 cells, which were derived from a mouse macrophage cell line, are illustrated in FIG. 18.

[1] = system: fatty liver model induced by a high-fat diet; experiment: Fatty liver model induced by high-fat diet; assay type: in vivo, C57BL/6J mice
From the text: In the present invention, a high fat diet (HFD: 60% fat calories, Research diets, D12492, US) was used as an obesity induction diet.
Six-week-old male C57BL/6J mice (Central Lab. Animal Inc., Seoul, Korea) were acclimated to an experimental environment for one week while being fed solid food, and then randomly divided into a control group and an experimental group for a high-fat diet using a randomized block design. The animal groups were fed for 12 weeks, and thus, fatty liver animal models were established. Fatty liver development was determined according to blood biochemical and histochemical analysis methods. The mice were orally fed with the high-fat diet only for six weeks, and in combination with a GPR119 ligand (10 mg/kg) suspended in 40% PEG400 once a day for five days every week. Choline-deficient, amino acid-fixed high-fat diet steatohepatitis models were prepared by feeding six-week-old male C57BL/6J mice (Central Lab. Animal Inc., Seoul) with a diet containing 60 kcal fat and 0.1% methionine for four weeks. After terminating the experiment, experimental animals fasted for 12 hours or more. Subsequently, blood, liver, and adipose tissues in intestines (epididymal fat, kidney-surrounding fat) were collected from the animals that had been anesthetized with diethyl ether and then washed with a 0.1 M phosphate buffered saline (pH 7.4), followed by being weighed. Blood collected from abdominal aortas was centrifuged at 3000 rpm for 20 minutes using SST tubes to separate serum.
A total cholesterol concentration and a total glucose concentration in serum from each of the aforementioned experimental animals raised for 12 weeks were measured as follows. Each of the total cholesterol concentration and the total glucose concentration in serum was measured twice by means of a commercial measurement kit (Bio Clinical Systems). The amount of alanine aminotransferase (ALT) in blood used as a liver function index was measured by means of a commercial analysis kit (Bio Clinical Systems, Korea).
The collected liver tissues were fixed with a 10% neutral formalin solution and then subjected to a common fixation procedure and dehydration process, followed by embedding the same in paraffin. The embedded tissues were sectioned to a thickness of 4 μm and stained with H&E. The stained tissues were observed by means of an optical microscope.
A predetermined amount of each of the liver tissues was homogenized in liquid nitrogen and a cell lysis buffer in a mortar, and then a lysed tissue solution was transferred to a new tube, followed by vortexing. […] A middle layer of the centrifuged solution was collected and then subjected to protein quantification by the Bradford assay. […] Expression changes of FAS and SREBP-1c proteins were measured by western blotting. […]

[2] = system: mouse liver tissue and hepatocyte line; experiment: Summary statement: mouse liver tissue and hepatocyte line treated with the two GPR119 ligands; assay type: cell-based
[3] = system: non-alcoholic steatohepatitis (NASH) animal models induced by methionine-choline deficient diet; experiment: NASH animal model induced by methionine-choline deficient diet; assay type: in vivo, C57BL/6J mice; settings: MCD diet 4 weeks, 10 and 30 mg/kg oral
From the text: A liver fibrosis-inducing diet in the present invention is a methionine and choline-deficient (MCD) diet. Six-week-old male C57BL/6J mice (Central Lab. Animal Inc., Seoul, Korea) were acclimated to an experimental environment for one week while being fed solid food, and then randomly divided into a control group and an experimental group for the MCD diet using a randomized block design. The animal groups were fed for 4 weeks, and thus, liver fibrosis animal models were established. Liver fibrosis development was determined according to blood biochemical and histochemical analysis methods. The mice were orally fed once a day for five days every week with a GPR119 ligand (10 mg/kg and 30 mg/kg), which was suspended in 40% PEG400, in combination with the MCD diet. After terminating the experiment, the experimental animals fasted for 12 hours or more. Subsequently, blood and liver samples were collected from the animals, which had been anesthetized with diethyl ether, and then washed with a 0.1 M phosphate buffered saline (pH 7.4), followed by being weighed. […] Serum Lactate dehydrogenase (LDH) from the experimental animals raised for 4 weeks was measured as follows. The serum LDH was measured using a commercially available measurement kit (Bio Clinical system). […] Steatosis, ballooning, and lobular inflammation were blindly assessed by pathologists.

expression of acetyl CoA carboxylase (ACC) [2]: inhibited | expression of stearoyl-CoA desaturase (SCD) [2]: inhibited
Structure (SMILES): CCc1cnc(N2CCC(c3nc(COc4ccc(-n5cnnn5)cc4)cs3)CC2)nc1 [MBX2982, 4-((4-(1H-tetrazol-1-yl)phenoxy)methyl)-2-(1-(5-ethylpyrimidin-2-yl)piperidin-4-yl)thiazole]
expression of TNF-alpha mRNA (TNF-alpha mRNA): decreased | fatty liver development ([1]; animal models fed with a high-fat diet): completely inhibited | fat weight in the tissue ([1]; high-fat diet mice, 10 mg/kg oral): significantly decreased | mRNA level of GPR119 in liver ([1]; mice administered ligand, compared to a control group): seven-fold increased | activity of SREBP-1c [2]: inhibited | expression of GPR119 [2]: increased | expression of fatty acid synthase (FAS) [2]: inhibited | lobular inflammation (NAFLD activity score) [3]: inhibited | other markers (steatosis, ballooning, serum LDH) [3]: did not show significant changes
